Source: US20250269049A1, “CD20-TARGETED ANTIBODY COUPLING PHARMACEUTICAL PREPARATION” (priority 2017, published 2025)
Values joined by “and” are separate entries in the source; they are usually repeats but may differ in a detail not shown here. Equal entries are not always repeated.

What was measured:
Ramos cells [1] = assay: Internalization efficacy by flow cytometry, Ramos cells; assay type: cell-based; details: 10 μg/mL, 37° C. 2 h, FIG. 2C
Description: (§1) Experiment 1: Method for Internalization Efficacy of Antibody-Drug Conjugate (TRS005) by Flow Cytometry
(§2) Cell preparation: take logarithmic growth phase Raji cells or Ramos cells, centrifuge at 1000 rpm for 5 minutes, resuspend using DPBS, adjust the density of live cells to 2×10^6 cells/mL, and divide into 1.5 mL centrifuge tubes, 1 mL/tube.
(§3) Sample dilution: The sample to be tested (TRS005 with a DAR of approximately 4.2) was diluted to 1000 μg/mL, 10 μL was added to each 1 mL of cell suspension, and blown and mixed to make the final concentration of the sample 10 μg/mL.
(§4) Incubation the cell suspension to which the samples were added was placed on ice and ice-bath for 30 minutes. […]
(§5) Cells from the negative control group treated with ice bath were gating and the average fluorescence intensity of cells in each tube at FL1 was recorded. […]
(§6) The percentage of endocytosis of the samples was calculated based on the average fluorescence intensity according to the following formula.
(§7) Internalization efficacy ratio %=(mean fluorescence intensity of negative control group−mean fluorescence intensity of experimental group)/mean fluorescence intensity of negative control group×100%.

[2] = tested on: Daudi cell xenografts tumor; assay: In vivo anti-tumor activity test, Daudi graft tumor; set-up: species or system BALB/c nude mice; details: tail vein, 6 injections over 21 days, two batches (first and second), listed as TRS005
Text: Experiment 3 In vivo Anti-Tumor Activity Test
1. Test animals and housing environment
Species: BALB/c nude mice
Gender of animals: male mice.
Age at acquisition: 6-8 weeks; Body weight at the beginning of the experiment: 18˜20 g.
Housing environment: SPF grade.
Daudi cells were purchased from the cell bank of the Type Culture Collection of the Chinese Academy of Sciences.
3. TEST SAMPLE: The Test Sample was Selected From Two Batches of the Product Prepared in Example 2.
Under aseptic conditions of 5% CO2 and 37° C., Daudi cells were cultured with PRMI1640 medium containing 10% fetal bovine serum, respectively, and expanded to 5.0×10^8 cells. Cells were collected by centrifugation and mixed 1:1 with Matrix gel and inoculated subcutaneously into the right side of the rib cage of BALB/c nude mice at 1×10^7 cells/200 μl/animal.
When the mean tumor volume reached 100 mm3, the group was randomized: […]
There were 10 nude mice in each group. Then the administration of the drug was started by tail vein administration, and the body weight of BALB/c nude mice and the long and short diameters of the tumors were measured, and recorded during the administration. […]
Tumor volume and Tumor weight were expressed as Mean±Standard Error of the Mean (Mean±SEM). Statistical tests were analyzed by one-way analysis of variance (ANOVA), with p<0.05 considered significant and p<0.01 considered highly significant.

Ramos cells [3] = assay: In vitro cytotoxicity assay (CCK-8); assay type: cell-based; details: about 72 hours incubation, parallel detections 1 and 2
Text: Experiment 2: In vitro Cytotoxicity Assay
FBS, purchased from Lonsera, product number S711-001S;
Streptomycin/Penicillin Dual Antibody, purchased from HyClone, Lot: SV30010;
DPBS (Dulbecco's Phosphate Buffer Solution) was purchased from Gibco, product number 14190-136;
CCK-8 reagent, purchased from Biolite, product number 35004.
Ramos cells were purchased from COBIOER BIOSCIENCES CO., LTD.
Cell culture and plating: Ramos cells with viability greater than 80% in the logarithmic growth phase up to 30 generations were selected for the experiment. Ramos cells were removed from culture flasks and added to 50 mL centrifuge tubes and blown to mix. 1000 rpm (≈188g) centrifugation was performed for 5-6 minutes. The supernatant was discarded and the cells were resuspended with the appropriate volume of diluent. […]
Plate reading: Load the plate into the enzyme labeling instrument and read the plate with 450 nm as the reading wavelength and 650 nm as the reference wavelength.
Data processing: The IC50 value was calculated using a four-parameter fitting model with the concentration value as the horizontal coordinate and the difference between the absorbance value at 450 nm minus the absorbance value at 650 nm as the vertical coordinate.

Raji cells = assay: Internalization efficacy by flow cytometry, Raji cells; assay type: cell-based; details: 10 μg/mL, 37° C. 2 h, FIG. 2D
Description: as §1, §2, §3, §4, §5, §6, §7

Substance: Example 2: Anti-CD20 antibody TRS001 (rituximab biosimilar) conjugated to MMAE via maleimidocaproyl-valine-citrulline-p-aminobenzyloxycarbonyl linker; preferred DAR distribution
- internalization efficacy (Ramos cells [1]): good internalization efficacy
- tumor inhibition rate ([2]; 0.75 mg/kg): 91.08% and 92.09%
- tumor inhibition rate ([2]; 1.5 mg/kg): 97.15% and 97.71%
- IC50 (Ramos cells [3]): 0.0589 µg/mL and 0.0648 µg/mL
- internalization efficacy (Raji cells): good internalization efficacy
